Measured values reported in patent US20180318343A1, “THERAPEUTIC AGENT FOR SKIN WOUND OR ROUGH SKIN” (JFE MINERAL COMPANY, LTD., priority 2015, published 2018).

What was measured:
fibroblast = conditions: cited from earlier work
skin = conditions: in vivo; cited from earlier work
[1] = Dissolution test by stirring method in saline; conditions: per BET surface area, mass ratio 1:50, stirring 500 rpm, 37° C., 3 hours
Procedure: The amount of dissolved Zn^2+ ions is measured in the present description, as follows: The surface areas of samples, which are produced with varying pH values at production by the same process as that for Preparation Example 2 of Examples to be described later, are measured beforehand by the BET method (BET specific surface area analyzer: High Precision, Multi-Analyte Gas Absorption Analyzer, manufactured by Quantachrome Instruments Japan G.K.). For each sample, the Zn^2+ ion concentration after stirring in saline is measured with an ICP emission spectrometer (ICPE-9000, manufactured by Shimadzu Corporation) to thereby obtain the amount of dissolved Zn^2+ ions, and then the amount of dissolved Zn^2+ ions is divided by the previously measured surface area. The mass ratio between each sample and the saline is set to 1:50, and the amount of Zn^2+ ions dissolved in the saline is measured after 3-hour stirring at 500 rpm at 37° C. by means of a rotor. […]
A dissolution test by a stirring method was conducted on 0.6 g each of dry powders obtained in Preparation Example 2 using 30 g of saline, and the amount of dissolved Zn^2+ ions and the pH were measured. […] Then the pH and the Zn^2+ ion concentration after the dissolution test were measured. […]

Structure (SMILES) | zinc ion concentration that does not exhibit toxicity to a fibroblast (fibroblast) | zinc ion level leading to increased inflammatory cell infiltration in skin and remarkably delayed reepithelization (skin) | Amount of dissolved Zn^2+ ions after dissolution test [1]
[Zn+2] [zinc ions] | not more than 500 μmol/L | not less than 15 mmol/L | –
[OH-].[OH-].[Zn+2] [zinc hydroxide] | – | – | less than 0.1 μg/m^2
[O]=[Zn] [zinc oxide] | – | – | sufficient
